Assay results published in US20190330275A1 (priority 2016, published 2019).
Several values for one entry are separate records, joined by “and”; a condition that tells them apart may be missing. Equal entries are not always repeated. Peptide text beside a SMILES is read from it.

Key:
rat α3β4 nAChR = rat α3β4 nAChR (Rattus norvegicus, UniProt P04757+P12392); assay: cell-based; settings: for IC50: α3β4 IC50 (half-blocking dose)
rat α6/α3β4 nAChR = rat α6/α3β4 nAChR (Rattus norvegicus, UniProt P04757+P12392+P43143); assay: cell-based
Sequence of rat α6/α3β4 nAChR (P04757 whole entry, looked up): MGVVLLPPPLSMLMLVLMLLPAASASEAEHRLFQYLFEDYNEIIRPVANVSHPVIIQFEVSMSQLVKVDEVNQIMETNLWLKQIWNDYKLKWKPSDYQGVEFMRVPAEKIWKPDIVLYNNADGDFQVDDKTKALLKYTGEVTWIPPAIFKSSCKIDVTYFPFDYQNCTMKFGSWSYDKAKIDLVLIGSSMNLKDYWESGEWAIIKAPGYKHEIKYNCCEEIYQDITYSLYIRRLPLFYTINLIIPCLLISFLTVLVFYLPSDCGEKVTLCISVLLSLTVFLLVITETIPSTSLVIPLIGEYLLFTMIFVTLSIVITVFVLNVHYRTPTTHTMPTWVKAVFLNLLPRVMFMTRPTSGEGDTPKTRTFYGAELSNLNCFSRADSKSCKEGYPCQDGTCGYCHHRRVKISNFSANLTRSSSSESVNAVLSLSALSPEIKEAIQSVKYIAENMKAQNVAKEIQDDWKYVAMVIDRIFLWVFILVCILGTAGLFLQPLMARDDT
Sequence of rat α6/α3β4 nAChR (P12392 whole entry, looked up): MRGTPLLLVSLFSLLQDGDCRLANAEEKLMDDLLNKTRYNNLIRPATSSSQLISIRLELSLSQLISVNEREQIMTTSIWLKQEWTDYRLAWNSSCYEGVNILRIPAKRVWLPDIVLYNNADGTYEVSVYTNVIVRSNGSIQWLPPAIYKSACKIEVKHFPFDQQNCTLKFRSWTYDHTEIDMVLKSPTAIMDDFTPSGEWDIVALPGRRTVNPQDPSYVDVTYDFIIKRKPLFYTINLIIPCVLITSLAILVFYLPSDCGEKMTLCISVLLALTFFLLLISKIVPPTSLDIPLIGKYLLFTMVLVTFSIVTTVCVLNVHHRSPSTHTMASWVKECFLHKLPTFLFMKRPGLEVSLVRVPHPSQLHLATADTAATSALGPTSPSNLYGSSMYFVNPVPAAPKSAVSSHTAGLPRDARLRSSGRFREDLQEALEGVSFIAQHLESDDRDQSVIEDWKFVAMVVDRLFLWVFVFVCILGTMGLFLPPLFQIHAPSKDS
Sequence of rat α6/α3β4 nAChR (P43143 whole entry, looked up): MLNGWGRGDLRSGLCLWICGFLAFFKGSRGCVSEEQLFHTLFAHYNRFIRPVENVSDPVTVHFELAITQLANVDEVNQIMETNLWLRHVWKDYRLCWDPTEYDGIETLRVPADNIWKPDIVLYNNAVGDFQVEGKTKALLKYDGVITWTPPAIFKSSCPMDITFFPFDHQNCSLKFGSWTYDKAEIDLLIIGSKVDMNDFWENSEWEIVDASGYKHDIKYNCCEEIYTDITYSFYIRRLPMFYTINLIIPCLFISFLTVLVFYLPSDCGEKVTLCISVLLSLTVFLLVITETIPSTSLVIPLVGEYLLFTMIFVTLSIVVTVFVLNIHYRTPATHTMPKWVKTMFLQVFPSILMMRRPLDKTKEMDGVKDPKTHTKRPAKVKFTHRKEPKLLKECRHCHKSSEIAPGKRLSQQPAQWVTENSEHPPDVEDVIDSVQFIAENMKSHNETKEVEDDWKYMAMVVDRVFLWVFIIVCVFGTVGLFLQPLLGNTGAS

[1] = α6/α3β4 IC50 (half-blocking dose)

Sequence of rat α3β4 nAChR (P04757 26-499 limits assumed): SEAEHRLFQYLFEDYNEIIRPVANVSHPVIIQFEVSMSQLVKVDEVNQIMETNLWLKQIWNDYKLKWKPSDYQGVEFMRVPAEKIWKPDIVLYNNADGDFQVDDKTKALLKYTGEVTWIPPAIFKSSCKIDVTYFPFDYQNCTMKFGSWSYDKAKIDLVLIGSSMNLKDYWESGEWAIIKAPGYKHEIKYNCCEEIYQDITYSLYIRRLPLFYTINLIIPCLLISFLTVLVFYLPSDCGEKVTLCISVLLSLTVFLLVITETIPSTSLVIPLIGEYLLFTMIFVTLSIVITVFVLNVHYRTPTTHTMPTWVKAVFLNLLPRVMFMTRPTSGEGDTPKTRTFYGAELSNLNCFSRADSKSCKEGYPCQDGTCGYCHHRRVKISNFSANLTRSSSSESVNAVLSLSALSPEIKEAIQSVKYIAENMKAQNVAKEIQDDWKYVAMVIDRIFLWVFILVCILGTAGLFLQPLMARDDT
Sequence of rat α3β4 nAChR (P12392 21-495 limits assumed): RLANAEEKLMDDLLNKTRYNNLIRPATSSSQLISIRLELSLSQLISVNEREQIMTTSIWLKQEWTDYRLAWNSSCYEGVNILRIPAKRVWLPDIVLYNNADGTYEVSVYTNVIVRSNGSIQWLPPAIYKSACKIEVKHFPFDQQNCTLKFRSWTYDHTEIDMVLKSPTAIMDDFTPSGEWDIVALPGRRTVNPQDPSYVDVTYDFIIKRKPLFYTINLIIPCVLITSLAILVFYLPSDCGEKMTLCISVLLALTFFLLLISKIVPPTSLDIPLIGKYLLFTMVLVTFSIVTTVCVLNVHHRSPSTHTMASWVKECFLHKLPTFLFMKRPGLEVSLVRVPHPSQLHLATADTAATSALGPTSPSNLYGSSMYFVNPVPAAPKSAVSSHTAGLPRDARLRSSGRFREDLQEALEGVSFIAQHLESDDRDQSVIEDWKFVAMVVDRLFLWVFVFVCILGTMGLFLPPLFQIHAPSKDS

SMILES	IC50 (rat α3β4 nAChR) [µM]	IC50 (rat α6/α3β4 nAChR; [1]) [µM]	also measured
CC[C@H](C)[C@@H]1NC(=O)[C@@H]2CCCN2C(=O)[C@H](CO)NC(=O)[C@H](CCSC)NC(=O)[C@H](C)NC(=O)[C@H](CO)NC(=O)[C@@H]2CSSC[C@H](NC(=O)CN)C(=O)N[C@@H](CSSC[C@@H](C(N)=O)NC1=O)C(=O)N[C@@H](CO)C(=O)N[C@@H](Cc1c[nH]cn1)C(=O)N1CCC[C@H]1C(=O)N[C@@H](C(C)C)C(=O)N2 [TxID, reference compound]			blocking of rat α3β4 nAChRs current (rat α3β4 nAChR): strong blocking activities; current blocked (rat α3β4 nAChR): 97% and 67%; elution time for current to return to the level of control current (rat α3β4 nAChR): ≤ 2 min; current blocked (rat α6/α3β4 nAChR): 85% and 46%; discrimination degree between α3β4 and α6β4* nAChRs (rat α6/α3β4 nAChR): 9.3 times
CC[C@H](C)[C@@H]1NC(=O)[C@@H]2CCCN2C(=O)[C@H](CO)NC(=O)[C@H](CCSC)NC(=O)[C@H](C)NC(=O)[C@H](CO)NC(=O)[C@H](CCCNC(=N)N)NC(=O)[C@@H]2CSSC[C@H](NC(=O)CN)C(=O)N[C@@H](CSSC[C@@H](C(N)=O)NC1=O)C(=O)N[C@@H](CO)C(=O)N[C@@H](Cc1c[nH]cn1)C(=O)N1CCC[C@H]1C(=O)N[C@@H](C(C)C)C(=O)N2 [TxID[9R]] (HELM PEPTIDE1{G.C.C.S.H.P.V.C.R.S.A.M.S.P.I.C.[am]}$PEPTIDE1,PEPTIDE1,2:R3-8:R3|PEPTIDE1,PEPTIDE1,3:R3-16:R3$$$V2.0)	> 10	> 10	
CC[C@H](C)[C@@H]1NC(=O)[C@@H]2CCCN2C(=O)[C@H](CO)NC(=O)[C@H](CCSC)NC(=O)[C@H](C)NC(=O)[C@H](CCCNC(=N)N)NC(=O)[C@H](CO)NC(=O)[C@@H]2CSSC[C@H](NC(=O)CN)C(=O)N[C@@H](CSSC[C@@H](C(N)=O)NC1=O)C(=O)N[C@@H](CO)C(=O)N[C@@H](Cc1c[nH]cn1)C(=O)N1CCC[C@H]1C(=O)N[C@@H](C(C)C)C(=O)N2 [TxID[10R]] (HELM PEPTIDE1{G.C.C.S.H.P.V.C.S.R.A.M.S.P.I.C.[am]}$PEPTIDE1,PEPTIDE1,2:R3-8:R3|PEPTIDE1,PEPTIDE1,3:R3-16:R3$$$V2.0)	> 10	> 10	
CC[C@H](C)[C@@H]1NC(=O)[C@H](CC(=O)O)NC(=O)[C@@H]2CCCN2C(=O)[C@H](CO)NC(=O)[C@H](CCSC)NC(=O)[C@H](C)NC(=O)[C@H](CO)NC(=O)[C@@H]2CSSC[C@H](NC(=O)CN)C(=O)N[C@@H](CSSC[C@@H](C(N)=O)NC1=O)C(=O)N[C@@H](CO)C(=O)N[C@@H](Cc1c[nH]cn1)C(=O)N1CCC[C@H]1C(=O)N[C@@H](C(C)C)C(=O)N2 [TxID[14D]] (HELM PEPTIDE1{G.C.C.S.H.P.V.C.S.A.M.S.P.D.I.C.[am]}$PEPTIDE1,PEPTIDE1,2:R3-8:R3|PEPTIDE1,PEPTIDE1,3:R3-16:R3$$$V2.0)	0.0506	2.26	α3β4 IC50 ratio (rat α3β4 nAChR): 14.1; IC50 ratio of α6/α3β4 vs. α3β4 (Discrimination) (rat α6/α3β4 nAChR): 44.7; α6/α3β4 IC50 ratio (rat α6/α3β4 nAChR): 66.6; IC50 (rat α6/α3β4 nAChR; α6/α3β4 IC50): 1 to 10 µM
CC[C@H](C)[C@@H]1NC(=O)[C@H](Cc2c[nH]cn2)NC(=O)[C@@H]2CCCN2C(=O)[C@H](CO)NC(=O)[C@H](CCSC)NC(=O)[C@H](C)NC(=O)[C@H](CO)NC(=O)[C@@H]2CSSC[C@H](NC(=O)CN)C(=O)N[C@@H](CSSC[C@@H](C(N)=O)NC1=O)C(=O)N[C@@H](CO)C(=O)N[C@@H](Cc1c[nH]cn1)C(=O)N1CCC[C@H]1C(=O)N[C@@H](C(C)C)C(=O)N2 [TxID[14H]] (HELM PEPTIDE1{G.C.C.S.H.P.V.C.S.A.M.S.P.H.I.C.[am]}$PEPTIDE1,PEPTIDE1,2:R3-8:R3|PEPTIDE1,PEPTIDE1,3:R3-16:R3$$$V2.0)	0.033	0.312	α3β4 IC50 ratio (rat α3β4 nAChR): 9.2; IC50 ratio of α6/α3β4 vs. α3β4 (Discrimination) (rat α6/α3β4 nAChR): 9.5; α6/α3β4 IC50 ratio (rat α6/α3β4 nAChR): 9.2
CC[C@H](C)[C@@H]1NC(=O)[C@@H]2CCCN2C(=O)[C@H](CO)NC(=O)[C@H](CCSC)NC(=O)[C@H](C)NC(=O)[C@H](CO)NC(=O)[C@@H]2CSSC[C@H](NC(=O)[C@H](C)N)C(=O)N[C@@H](CSSC[C@@H](C(N)=O)NC1=O)C(=O)N[C@@H](CO)C(=O)N[C@@H](Cc1c[nH]cn1)C(=O)N1CCC[C@H]1C(=O)N[C@@H](C(C)C)C(=O)N2 [TxID[G1A]] (HELM PEPTIDE1{A.C.C.S.H.P.V.C.S.A.M.S.P.I.C.[am]}$PEPTIDE1,PEPTIDE1,2:R3-8:R3|PEPTIDE1,PEPTIDE1,3:R3-15:R3$$$V2.0)		0.1 to 1	
CC[C@H](C)[C@@H]1NC(=O)[C@@H]2CCCN2C(=O)[C@H](CO)NC(=O)[C@H](CCSC)NC(=O)[C@H](C)NC(=O)[C@H](CO)NC(=O)[C@@H]2CSSC[C@H](NC(=O)CN)C(=O)N[C@@H](CSSC[C@@H](C(N)=O)NC1=O)C(=O)N[C@@H](CO)C(=O)N[C@@H](C)C(=O)N1CCC[C@H]1C(=O)N[C@@H](C(C)C)C(=O)N2 [TxID[H5A]] (HELM PEPTIDE1{G.C.C.S.A.P.V.C.S.A.M.S.P.I.C.[am]}$PEPTIDE1,PEPTIDE1,2:R3-8:R3|PEPTIDE1,PEPTIDE1,3:R3-15:R3$$$V2.0)	> 10	> 10	
CC[C@H](C)[C@@H]1NC(=O)[C@@H]2CCCN2C(=O)[C@H](CO)NC(=O)[C@H](CCSC)NC(=O)[C@H](C)NC(=O)[C@H](C)NC(=O)[C@@H]2CSSC[C@H](NC(=O)CN)C(=O)N[C@@H](CSSC[C@@H](C(N)=O)NC1=O)C(=O)N[C@@H](CO)C(=O)N[C@@H](Cc1c[nH]c3ccccc13)C(=O)N1CCC[C@H]1C(=O)N[C@@H](C(C)C)C(=O)N2 [TxID[H5W, S9A]] (HELM PEPTIDE1{G.C.C.S.W.P.V.C.A.A.M.S.P.I.C.[am]}$PEPTIDE1,PEPTIDE1,2:R3-8:R3|PEPTIDE1,PEPTIDE1,3:R3-15:R3$$$V2.0)	> 10	> 10	
CC[C@H](C)[C@@H]1NC(=O)[C@@H]2CCCN2C(=O)[C@H](CO)NC(=O)[C@H](CCSC)NC(=O)[C@H](C)NC(=O)[C@H](CO)NC(=O)[C@@H]2CSSC[C@H](NC(=O)CN)C(=O)N[C@@H](CSSC[C@@H](C(N)=O)NC1=O)C(=O)N[C@@H](CO)C(=O)N[C@@H](Cc1c[nH]c3ccccc13)C(=O)N1CCC[C@H]1C(=O)N[C@@H](C(C)C)C(=O)N2 [TxID[H5W]] (HELM PEPTIDE1{G.C.C.S.W.P.V.C.S.A.M.S.P.I.C.[am]}$PEPTIDE1,PEPTIDE1,2:R3-8:R3|PEPTIDE1,PEPTIDE1,3:R3-15:R3$$$V2.0)	> 10	> 10	
CC[C@H](C)[C@@H]1NC(=O)[C@H](C)NC(=O)[C@H](CO)NC(=O)[C@@H]2CSSC[C@H](NC(=O)CN)C(=O)N[C@@H](CSSC[C@@H](C(N)=O)NC(=O)[C@H]([C@@H](C)CC)NC(=O)[C@@H]3CCCN3C(=O)[C@H](CO)NC1=O)C(=O)N[C@@H](CO)C(=O)N[C@@H](Cc1c[nH]cn1)C(=O)N1CCC[C@H]1C(=O)N[C@@H](C(C)C)C(=O)N2 [TxID[M11I]] (HELM PEPTIDE1{G.C.C.S.H.P.V.C.S.A.I.S.P.I.C.[am]}$PEPTIDE1,PEPTIDE1,2:R3-8:R3|PEPTIDE1,PEPTIDE1,3:R3-15:R3$$$V2.0)			binding (blocking) activity to α6/α3β4 nAChR compared with wild type TxID (rat α6/α3β4 nAChR): not a decrease
CC[C@H](C)[C@@H]1NC(=O)[C@@H]2CCCN2C(=O)[C@H](CO)NC(=O)[C@H](CCSC)NC(=O)[C@H](C)NC(=O)[C@H](CC(=O)O)NC(=O)[C@@H]2CSSC[C@H](NC(=O)CN)C(=O)N[C@@H](CSSC[C@@H](C(N)=O)NC1=O)C(=O)N[C@@H](CO)C(=O)N[C@@H](Cc1c[nH]cn1)C(=O)N1CCC[C@H]1C(=O)N[C@@H](C(C)C)C(=O)N2 [TxID[S9D]] (HELM PEPTIDE1{G.C.C.S.H.P.V.C.D.A.M.S.P.I.C.[am]}$PEPTIDE1,PEPTIDE1,2:R3-8:R3|PEPTIDE1,PEPTIDE1,3:R3-15:R3$$$V2.0)			blocking effect on the current of rat α6/α3β4 nAChRs (rat α6/α3β4 nAChR): no blocking effect
